From the supplement of paper PMC11061612 come the findings set out here.

The subject of assay [1] is SIMA (Neuroblastoma). The experiment in a line: Bliss excess, mean over the matrix (fraction); higher = more synergy. The procedure, abridged: (§1)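 After 24 hours at 37°C and 5% CO2 in 1536-well plates, cells in DMEM/F12 or RPMI plus 10% FBS received two-drug dose matrices for 72 hours. Viability came from CellTiter-Glo 2.0 luminescence and was scaled as inhibition, anchored at 0 by vehicle wells and at 1 by blank wells. Combination Emax is taken as the second-highest inhibition in the matrix, and Bliss excess as the observed combination effect less EA + EB − EA·EB, with EA and EB the single-agent effects.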

For another assay, the system named is NCI-H2461 (Mesothelioma). Described as above. The procedure, abridged: as §1
Assay [2] concerns K5 (Thyroid Gland Carcinoma). The description is as above. The procedure, abridged:
as §1

Assay [3] has as its system CAPAN-1 (Pancreatic Carcinoma). The assay is described as above. The method in brief: as §1
Assay [4] deals with RH-18 (Rhabdomyosarcoma). The assay is described as above. The procedure, abridged:
as §1

Another assay has as its system NB14 (Neuroblastoma). The description is as above. The procedure, abridged:
as §1

Assay [5] has as its system NCI-H747 (Colorectal Carcinoma). Described as above. The method in brief: as §1
The subject of assay [6] is MDA-MB-468 (Breast Carcinoma). The description is as above. The procedure, abridged:
as §1

Assay [7] has as its system RPMI-6666 (Non-Cancerous). The description is as above. The method in brief:
as §1

The subject of another assay is SH-4 (Melanoma). The description is as above. The procedure, abridged:
as §1

Assay [8] relates to SIMA (Neuroblastoma). Kind of assay: combination Emax (second highest fraction inhibited in the dose matrix, 72 h); higher = more inhibition; extreme values may be limits of the assay. The method in brief: as §1
The test system of assay [9] is RH-18 (Rhabdomyosarcoma). The description is as above. The method in brief:
as §1
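Throughout, for Bliss excess, mean over the matrix: after 72 h of two-drug dosing.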

As to `Cc1cc2ncnn2cc1Nc1ncc2c(n1)n(C1CCOCC1)c(=O)n2C` [AZD7648] + CCN(CCO)CCCOc1ccc2c(Nc3cc(CC(=O)Nc4cccc(F)c4)[nH]n3)ncnc2c1 [AZD2811] (first compound max 10 µM, 7x7, partner max 1 µM), the Bliss excess in the assay with SIMA (Neuroblastoma) [1] is 0.0728; with NCI-H2461 (Mesothelioma), -0.0105; in assay [2], 0.0013; in [3], -0.0304; with RH-18 (Rhabdomyosarcoma) [4], 0.0148; in the assay with NB14 (Neuroblastoma), -0.0603. Further, the Bliss excess is -0.0205 in assay [5], -0.0442 in assay [6], 0.036 in [7] and -0.0059 in the assay with SH-4 (Melanoma). For the same compound, the entries for the “combination Emax” value in the assay with SIMA (Neuroblastoma) [8] and in the assay with RH-18 (Rhabdomyosarcoma) [9] were 0.532 and 0.333, respectively.
Regarding `COc1cccc(OCCCN)c1-c1cc(Nc2cnc(C#N)cn2)n[nH]1` [Prexasertib] + O=C(c1cc(Cc2n[nH]c(=O)c3ccccc23)ccc1F)N1CCN(C(=O)C2CC2)CC1 [Olaparib] (first compound max 1 µM, 7x7, partner max 10 µM), the Bliss excess was -0.0728 in the assay with SIMA (Neuroblastoma) [1]; -0.0891 in the assay with NCI-H2461 (Mesothelioma); -0.051 in [2]; -0.111 in assay [3]; -0.0295 with RH-18 (Rhabdomyosarcoma) [4]; -0.0553 in the assay with NB14 (Neuroblastoma). Moreover, the Bliss excess in [5] is 0.0024; in assay [6], -0.106; in assay [7], -0.0352; in the assay with SH-4 (Melanoma), -0.099. Besides, the “combination Emax” value in the assay on SIMA (Neuroblastoma) [8] stood at 0.97; in the assay on RH-18 (Rhabdomyosarcoma) [9], 0.327.
Turning to `COc1cc2c(cc1OCCCCCOc1cc3c(cc1OC)C(=O)N1C=C(C)C[C@H]1C=N3)N=C[C@@H]1CC(C)=CN1C2=O` [SG3199] + O=C(c1cc(Cc2n[nH]c(=O)c3ccccc23)ccc1F)N1CCN(C(=O)C2CC2)CC1 [Olaparib] (first compound max 0.001 µM, 7x7, partner max 10 µM), the Bliss excess with SIMA (Neuroblastoma) [1] was -0.0214; with NCI-H2461 (Mesothelioma), -0.0652; in assay [2], -0.0105; in assay [3], -0.0802; with RH-18 (Rhabdomyosarcoma) [4], -0.0378; in the assay on NB14 (Neuroblastoma) it was -0.0283. Further, the Bliss excess in [5] is -0.0269; in assay [6] it was -0.0971; in [7], 0.0028; in the assay with SH-4 (Melanoma), -0.027. In addition, the entries for the “combination Emax” value in the assay with SIMA (Neuroblastoma) [8] and with RH-18 (Rhabdomyosarcoma) [9] were 0.421 and 0.174, respectively.
For the compound `CCN(CCO)CCCOc1ccc2c(Nc3cc(CC(=O)Nc4cccc(F)c4)[nH]n3)ncnc2c1` [AZD2811] + O=C(c1cc(Cc2n[nH]c(=O)c3ccccc23)ccc1F)N1CCN(C(=O)C2CC2)CC1 [Olaparib] (first compound max 1 µM, 7x7, partner max 10 µM), the Bliss excess with SIMA (Neuroblastoma) [1] was 0.0206; in the assay with NCI-H2461 (Mesothelioma), -0.0638; in assay [2], 0.0162; in [3] it was -0.0091; with RH-18 (Rhabdomyosarcoma) [4], 0.0097; in the assay on NB14 (Neuroblastoma), -0.0384. The Bliss excess in assay [5] was 0.03; in assay [6], 0.0541; in assay [7] it was -0.0615; in the assay on SH-4 (Melanoma), -0.0234. For the same compound, the figures for the “combination Emax” value with SIMA (Neuroblastoma) [8] and with RH-18 (Rhabdomyosarcoma) [9] were 0.213 and 0.257, respectively.
`CN(C)CCCOc1ccc(-c2ccc3ncc4c(c3c2)n(C2CCOCC2)c(=O)n4C)cn1` [AZD0156] + C[C@@H]1COCCN1C2=NC(=NC(=C2)C3(CC3)[S@](=N)(=O)C)C4=C5C=CNC5=NC=C4 [AZD6738] (first compound max 1 µM, 7x7, partner max 10 µM): the Bliss excess in the assay on SIMA (Neuroblastoma) [1] is 0.074; with NCI-H2461 (Mesothelioma), -0.0664; in assay [2], -0.0074; in assay [3], -0.0775; with RH-18 (Rhabdomyosarcoma) [4], -0.0312; with NB14 (Neuroblastoma), -0.0448. Further, the Bliss excess was -0.0103 in [5], -0.011 in [6], -0.0187 in assay [7] and 0.0052 in the assay on SH-4 (Melanoma). Further, the entries for the “combination Emax” value in the assay with SIMA (Neuroblastoma) [8] and with RH-18 (Rhabdomyosarcoma) [9] were 0.9 and 0.343, respectively.
Turning to `COc1cccc(OCCCN)c1-c1cc(Nc2cnc(C#N)cn2)n[nH]1` [Prexasertib] + CN(C)CCCOc1ccc(-c2ccc3ncc4c(c3c2)n(C2CCOCC2)c(=O)n4C)cn1 [AZD0156] (first compound max 1 µM, 7x7, partner max 1 µM), the Bliss excess in the assay on SIMA (Neuroblastoma) [1] is 0.0111; in the assay with NCI-H2461 (Mesothelioma) it was -0.0647; in assay [2] it was -0.0339; in assay [3], -0.0747; with RH-18 (Rhabdomyosarcoma) [4], -0.0006; in the assay on NB14 (Neuroblastoma), -0.033. Also, the Bliss excess in [5] is -0.0095; in assay [6], -0.057; in assay [7], 0.0064; in the assay with SH-4 (Melanoma), 0.0424. In addition, the “combination Emax” value in the assay with SIMA (Neuroblastoma) [8] amounted to 1; with RH-18 (Rhabdomyosarcoma) [9], 0.426.
In the case of `Cc1cc2ncnn2cc1Nc1ncc2c(n1)n(C1CCOCC1)c(=O)n2C` [AZD7648] + C=CCn1c(=O)c2cnc(Nc3ccc(N4CCN(C)CC4)cc3)nc2n1-c1cccc(C(C)(C)O)n1 [AZD1775] (first compound max 10 µM, partner max 1 µM), the Bliss excess is 0.0406 in the assay with SIMA (Neuroblastoma) [1]; -0.0524 in the assay on NCI-H2461 (Mesothelioma); 0.0433 in [2]; 0.0049 in assay [3]; 0.0278 in the assay on RH-18 (Rhabdomyosarcoma) [4]; 0.0014 in the assay with NB14 (Neuroblastoma). The Bliss excess is -0.0108 in assay [5], -0.0044 in assay [6], -0.0687 in assay [7] and 0.0332 in the assay on SH-4 (Melanoma). In addition, the “combination Emax” value was 0.941 in the assay on SIMA (Neuroblastoma) [8] and 0.426 in the assay on RH-18 (Rhabdomyosarcoma) [9].
As to `Cc1cc2ncnn2cc1Nc1ncc2c(n1)n(C1CCOCC1)c(=O)n2C` [AZD7648] + CN(C)CCCOc1ccc(-c2ccc3ncc4c(c3c2)n(C2CCOCC2)c(=O)n4C)cn1 [AZD0156] (first compound max 10 µM, 7x7, partner max 1 µM), the Bliss excess is 0.0504 in the assay on SIMA (Neuroblastoma) [1]; -0.0442 with NCI-H2461 (Mesothelioma); -0.0226 in assay [2]; -0.0201 in assay [3]; -0.0092 in the assay with RH-18 (Rhabdomyosarcoma) [4]; 0.0053 in the assay with NB14 (Neuroblastoma). Moreover, the Bliss excess in assay [5] is 0.0253; in assay [6], 0.0032; in [7], -0.101; with SH-4 (Melanoma), 0.0077. Also, the “combination Emax” value was 0.312 in the assay on SIMA (Neuroblastoma) [8] and 0.333 in the assay on RH-18 (Rhabdomyosarcoma) [9].
As for `C=CCn1c(=O)c2cnc(Nc3ccc(N4CCN(C)CC4)cc3)nc2n1-c1cccc(C(C)(C)O)n1` [AZD1775] + O=C(c1cc(Cc2n[nH]c(=O)c3ccccc23)ccc1F)N1CCN(C(=O)C2CC2)CC1 [Olaparib] (first compound max 1 µM, partner max 10 µM), the Bliss excess was 0.0028 with SIMA (Neuroblastoma) [1]; -0.0561 with NCI-H2461 (Mesothelioma); -0.0175 in assay [2]; -0.0123 in assay [3]; -0.0018 with RH-18 (Rhabdomyosarcoma) [4]; -0.0306 in the assay with NB14 (Neuroblastoma). Further, the Bliss excess in assay [5] was 0.0175; in assay [6], -0.0449; in assay [7] it was -0.0373; in the assay with SH-4 (Melanoma), -0.0882. Also, the “combination Emax” value in the assay with SIMA (Neuroblastoma) [8] is 0.721; with RH-18 (Rhabdomyosarcoma) [9], 0.401.
